77 sequences from the supplement of paper PMC11208160 can be followed below.

The series is described as follows: recombinant barcode read abundance after kanamycin selection (control-corrected) (log10(CPM+1)); higher = more efficient recombination; sequences stand for … in AGTGCAGAGAAAATCGGCCAGTTTTCTCTGCCTGCAGTCCGCATGCCGT…AGATTTATGCAGCGGACTGCCTTTCTCCCAAAGTGATAAACCGGACAGTATCATGGACCGGTTTTCCCGGTAATCCGTATTTGCAAGGTTGGTTTCACT; site = the 11-nt target. The essentials: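 Recombination efficiency comes from barcode counts at recombinant junctions, converted to counts per million, averaged and corrected against the control. Values appear as log10(CPM+1). They were obtained from a pooled E. coli screen in which each oligo paired a target with an IS621 bridge RNA target-binding loop, and cells were plated in duplicate on chloramphenicol/ampicillin LB agar or on chloramphenicol/ampicillin/kanamycin with 0.1 mM IPTG.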
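Further: IS621 recombinase and bridge RNA in Escherichia coli cells.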

In the case of “AGCTTAGCTTGGGTTCTAACCTGTTGCCC (site AGCTTAGCTTG)”, the “recombinant barcode read abundance (log10)” value stood at 0.0493. The result for “AGCTTGCCTTGGGTTCTAACCTGTTGCAG (site AGCTTGCCTCT)” reads 0.717; that for “AGCTTGCCTTGGGTTCTAACCTGTTGCAG (site CATAGCGCTAG)”, 0.277; that for “AGCTTTGCTTGGGTTCTAACCTGTTGCCT (site AGCATTGCTAG)”, 0.015. Turning to “AGCTTTGCTTGGGTTCTAACCTGTTGCCT (site AGCCTTGCTAG)”, the “recombinant barcode read abundance (log10)” value turned out to be 0.171.

As for “AGCTTTGCTTGGGTTCTAACCTGTTGCCT (site AGCGTTGCTAG)”, the “recombinant barcode read abundance (log10)” value worked out at 0.669. For “AGCTTTGCTTGGGTTCTAACCTGTTGCCT (site AGCTTTGCTAG)” the value was 0.0693; for “AGGAACCCTTGGGTTCTAACCTGTTGCTG (site AGGAACCCTAA)”, 0.712; for “AGGAACCCTTGGGTTCTAACCTGTTGCTG (site AGGAACCCTCA)”, 1.78. The result for “AGGAACCCTTGGGTTCTAACCTGTTGCTG (site AGGAACCCTGA)” reads 0.106; that for “AGGAACCCTTGGGTTCTAACCTGTTGCTG (site AGGAACCCTTA)”, 0.08. “AGGACGACTTGGGTTCTAACCTGTTGCCT (site AGCGCGACTAG)”: the “recombinant barcode read abundance (log10)” value stood at 0.0505. For “AGGACGACTTGGGTTCTAACCTGTTGCCT (site AGGACGACTAG)” the value was 0.376; for “AGGAGAACTTGGGTTCTAACCTGTTGCCT (site AGCATAACTAG)”, 0.447.

In the case of “AGGAGAACTTGGGTTCTAACCTGTTGCCT (site AGGAGAACTAG)”, the “recombinant barcode read abundance (log10)” value came to 1.35.

Turning to “AGGAGCCCTTGGGTTCTAACCTGTTGCTC (site AGGAGCCCTAA)”, the “recombinant barcode read abundance (log10)” value is 0.124.

“AGGAGCCCTTGGGTTCTAACCTGTTGCTC (site AGGAGCCCTCA)”: the “recombinant barcode read abundance (log10)” value stood at 0.152. The result for “AGGAGCCCTTGGGTTCTAACCTGTTGCTC (site AGGAGCCCTGA)” reads 0.377; that for “AGGAGCCCTTGGGTTCTAACCTGTTGCTC (site AGGAGCCCTTA)”, 0.0844. For the sequence “AGGAGCCCTTGGGTTCTAACCTGTTGCTT (site AGGAGCCCTAA)”, the “recombinant barcode read abundance (log10)” value was found to be 1.25. On to “AGGAGCCCTTGGGTTCTAACCTGTTGCTT (site AGGAGCCCTCA)”, for which the “recombinant barcode read abundance (log10)” value was 0.0777. For “AGGAGCCCTTGGGTTCTAACCTGTTGCTT (site AGGAGCCCTGA)” the value was 0.0286. The result for “AGGAGCCCTTGGGTTCTAACCTGTTGCTT (site AGGAGCCCTTA)” reads 0.271; that for “AGGAGCGCTTGGGTTCTAACCTGTTGCCT (site AGCAGCTCTAG)”, 0.105; that for “AGGAGCGCTTGGGTTCTAACCTGTTGCCT (site AGGAGCGCTAG)”, 1.95. The result for “AGGAGTCCTTGGGTTCTAACCTGTTGCAG (site AGGAGTCCTCT)” reads 2.24; that for “AGGAGTCCTTGGGTTCTAACCTGTTGCAG (site GTACAAGCTAG)”, 0.239. “AGGCAGACTTGGGTTCTAACCTGTTGCCA (site AGGAAGACTTG)”: the “recombinant barcode read abundance (log10)” value was 0.0571. For “AGGCAGACTTGGGTTCTAACCTGTTGCCA (site AGGCAGACTTG)” the value was 0.699; for “AGGCAGACTTGGGTTCTAACCTGTTGCCA (site AGGGAGACTTG)”, 0.216.

As to “AGGCAGACTTGGGTTCTAACCTGTTGCCA (site AGGTAGACTTG)”, the “recombinant barcode read abundance (log10)” value stood at 0.639. The result for “AGGCAGTCTTGGGTTCTAACCTGTTGCCT (site AGGCAGTCTAG)” reads 0.444; that for “AGGCAGTCTTGGGTTCTAACCTGTTGCCT (site AGGCCGTCTAC)”, 0.0845; that for “AGGCGCCCTTGGGTTCTAACCTGTTGCAA (site AGGCGCCCTAT)”, 0.187.

“AGGCGCCCTTGGGTTCTAACCTGTTGCAA (site AGGCGCCCTCT)”: the “recombinant barcode read abundance (log10)” value came to 0.0506. On to “AGGCGCCCTTGGGTTCTAACCTGTTGCAA (site AGGCGCCCTGT)”, for which the “recombinant barcode read abundance (log10)” value was 0.0953. On to “AGGCGCCCTTGGGTTCTAACCTGTTGCAA (site AGGCGCCCTTT)”, for which the “recombinant barcode read abundance (log10)” value was 0.635. The result for “AGGCTGACTTGGGTTCTAACCTGTTGCCT (site AGGCTGACTAG)” reads 0.94.

For the sequence “AGGCTGACTTGGGTTCTAACCTGTTGCCT (site AGGCTGCCTAG)”, the “recombinant barcode read abundance (log10)” value came to 0.0128. For “AGGCTGACTTGGGTTCTAACCTGTTGCCT (site AGGCTGGCTAG)” the value was 0.0298; for “AGGCTGACTTGGGTTCTAACCTGTTGCCT (site AGGCTGTCTAG)”, 0.139; for “AGGCTTACTTGGGTTCTAACCTGTTGCAG (site AGGCTTACTCT)”, 1.47. “AGGCTTACTTGGGTTCTAACCTGTTGCAG (site AGTCCTACTCT)”: the “recombinant barcode read abundance (log10)” value turned out to be 0.0844. The result for “AGGGACTCTTGGGTTCTAACCTGTTGCCG (site AGGGACTCTCG)” reads 1.71; that for “AGGGACTCTTGGGTTCTAACCTGTTGCCG (site TGGGACACTCG)”, 0.0423. For “AGGGAGACTTGGGTTCTAACCTGTTGCTC (site AGGGAGACTGA)” the value was 2.64. “AGGGAGACTTGGGTTCTAACCTGTTGCTC (site CACTTTGCTAG)”: the “recombinant barcode read abundance (log10)” value came to 0.151. Regarding “AGGGATCCTTGGGTTCTAACCTGTTGCGG (site AAGTATCCTCC)”, the “recombinant barcode read abundance (log10)” value was 0.032. For “AGGGATCCTTGGGTTCTAACCTGTTGCGG (site AGGGATCCTCC)” the value was 2.7. The result for “AGGGCACCTTGGGTTCTAACCTGTTGCCA (site AGGGCACCTTG)” reads 1.26; that for “AGGGCACCTTGGGTTCTAACCTGTTGCCA (site ATGGCACCTAG)”, 0.186; that for “AGGGCTTCTTGGGTTCTAACCTGTTGCTA (site ACGGCTTCTTA)”, 0.

Take “AGGGCTTCTTGGGTTCTAACCTGTTGCTA (site AGGGCTTCTTA)”: the “recombinant barcode read abundance (log10)” value was determined as 1.87. For the sequence “AGGGGAGCTTGGGTTCTAACCTGTTGCGG (site AGGGGAGCTCC)”, the “recombinant barcode read abundance (log10)” value is 2.35. For “AGGGGAGCTTGGGTTCTAACCTGTTGCGG (site ATGGGAGCTTC)” the value was 0.0749; for “AGGGGATCTTGGGTTCTAACCTGTTGCCT (site AGGGGATCTAG)”, 1.86.

In the case of “AGGGGATCTTGGGTTCTAACCTGTTGCCT (site AGTGGAGCTAG)”, the “recombinant barcode read abundance (log10)” value came to 0.0518.

Take “AGGGGCACTTGGGTTCTAACCTGTTGCCG (site ACGGTCACTCG)”: the “recombinant barcode read abundance (log10)” value amounted to 0.104.

For “AGGGGCACTTGGGTTCTAACCTGTTGCCG (site AGGGGCACTCG)”, the “recombinant barcode read abundance (log10)” value came to 1.83.

With “AGGGGCTCTTGGGTTCTAACCTGTTGCTG (site ACGGGCTCTAA)”, the “recombinant barcode read abundance (log10)” value turned out to be 0.0932. Take “AGGGGCTCTTGGGTTCTAACCTGTTGCTG (site AGGGGCTCTCA)”: the “recombinant barcode read abundance (log10)” value was determined as 3.01. The result for “AGGTAACCTTGGGTTCTAACCTGTTGCCT (site AGGTAACCTAG)” reads 0.401. As to “AGGTAACCTTGGGTTCTAACCTGTTGCCT (site CGGTAACCTAG)”, the “recombinant barcode read abundance (log10)” value amounted to 0.23. “AGGTAACCTTGGGTTCTAACCTGTTGCCT (site GGGTAACCTAG)”: the “recombinant barcode read abundance (log10)” value stood at 0.885. Regarding “AGGTAACCTTGGGTTCTAACCTGTTGCCT (site TGGTAACCTAG)”, the “recombinant barcode read abundance (log10)” value was found to be 0.179.

For the sequence “AGGTCAACTTGGGTTCTAACCTGTTGCCG (site AGGTCAACTCG)”, the “recombinant barcode read abundance (log10)” value is 0.0699. For the sequence “AGGTCAACTTGGGTTCTAACCTGTTGCCG (site TAAGGTCCTAA)”, the “recombinant barcode read abundance (log10)” value came out at 0.0279. As for “AGGTCACCTTGGGTTCTAACCTGTTGCCT (site AGGTCACCTAA)”, the “recombinant barcode read abundance (log10)” value was determined as 0.0905. In the case of “AGGTCACCTTGGGTTCTAACCTGTTGCCT (site AGGTCACCTAC)”, the “recombinant barcode read abundance (log10)” value was 0.897. For “AGGTCACCTTGGGTTCTAACCTGTTGCCT (site AGGTCACCTAG)” the value was 1.83; for “AGGTCACCTTGGGTTCTAACCTGTTGCCT (site AGGTCACCTAT)”, 0.221; for “AGGTCCGCTTGGGTTCTAACCTGTTGCTA (site AGGTCCGCTTA)”, 1.4.

Take “AGGTCCGCTTGGGTTCTAACCTGTTGCTA (site CACCAGCCTAT)”: the “recombinant barcode read abundance (log10)” value worked out at 0.026.

With “AGGTCCTCTTGGGTTCTAACCTGTTGCAT (site AGGTCCTCTAA)”, the “recombinant barcode read abundance (log10)” value is 0.282. “AGGTCCTCTTGGGTTCTAACCTGTTGCAT (site AGGTCCTCTAC)”: the “recombinant barcode read abundance (log10)” value came out at 0.0867. For “AGGTCCTCTTGGGTTCTAACCTGTTGCAT (site AGGTCCTCTAG)” the value was 0.707; for “AGGTCCTCTTGGGTTCTAACCTGTTGCAT (site AGGTCCTCTAT)”, 2.24.
